# Patent US9205156B2, “Molecular imaging agents” (HADASIT MEDICAL RESEARCH SERVICES & DEVELOPMENT LIMITED, priority 2010, dated 2015)
# Several values for one entry are separate records, joined by “and”; a condition that tells them apart may be missing. Equal values may be shown once.
# Legend:
# [1] = Biodistribution of [11C]-4 in rats (γ-counter, % ID/g, heart SUV); format: in vivo, SD/Hsd rats
# Description: Similar to the biodistribution studies in mice, [^11C]-4 was injected into male SD/Hsd rats (293±9 g) in a 10% EtOH/saline solution (3.1±0.5 MBq; 530±134 μL) via the lateral tail vein. At the allotted time points, blood was drawn, animals were sacrificed, and selected organs were excised, weighed and measured for their radioactive content.
# [2] = Micro-PET scans in rats, time activity curves; format: in vivo, Wistar rats; details: microPET; for myocardial radioactivity uptake: isoflurane anesthesia
# Description: Micro-PET scans were also carried out using healthy Wistar rats (154±47 g). Anesthesia was induced, and thereafter maintained by 3% and 1%-2.5% isoflurane in O2, respectively. During the scans, rats were maintained normothermic using a heating blanket. All CT and PET acquisitions were carried out using the Inveon™ multimodality PET-CT small animal-dedicated scanner (Siemens Medical Solutions USA Inc.). Rats were positioned in the scanner so that the heart was in the center of the field of view. Following a CT scan, PET list-mode acquisition was started at the time of injection of [^11C]-4 (14.3±5.7 Mbq/rat, n=4) or [^13N]—NH3 (81.1±20.4 Mbq/rat, n=6) in the lateral tail vein. Acquisitions continued for 60 min or 40 min post-injection, for [^11C]-4 or [^13N]—NH3, respectively.
# The list-mode emission scans were sorted into 29 (6×10, 8×30, 5×60, 10×300 sec) and 24 (12×10, 6×30, 5×300, 1×600 sec) dynamic frames, for [^11C]-4 and [^13N]—NH3 respectively. Emission sinograms were normalized and corrected for attenuation, dead time and decay. Image reconstruction was performed using Fourier rebinning and two dimensional ordered-subsets expectation maximization (2D-OSEM), with a voxel size of 0.776×0.776×0.796 mm^3.
# Image analysis and quantification of radioactivity concentration in regions of interest (ROIs) were performed using Inveon Research Workplace 3.1 (Siemens Medical Solutions USA Inc.). Delineation of ROIs was performed by manual segmentation, and the corresponding time activity curves (TACs) were calculated.
# [3] = Tracer biodistribution studies in mice (γ-counter, % ID/g)
# Description: Compounds [^11C]-1, [^11C]-2, [^11C]-3, [^11C]-4, [^11C]-6, [^11C]-7 and Technetium-99 m methoxy isobutyl isonitrile ([^99mTc]MIBI) biodistribution studies were carried out with BALB/c Ola/Hsd mice (7-8 week). Tracers were injected in a 10% EtOH/saline solution as vehicle. Either [^11C]-1 (62±15 μCi; […]; 122±13 μL), [^11C]-2 (68±12 μCi; 2.5±0.4 MBq; 188±1.3 μL), [^11C]-3 (70±17 μCi; 2.6±0.6 MBq; 185±5 μL), [^11C]-4 (18±5 μCi; […]; 195±2.2 μL or 1.24±0.93 MBq, 229±63 μL), [^11C]-6 (1.95±0.21 MBq, 83±41 μL), [^11C]-7 (2.01±0.16 MBq, 169±73 μL) or [^99mTc]mibi (14.2±1.7 μCi; 3.6±0.4 MBq; 97.7±12.5 μL) were injected via the lateral vein. At allotted time points (1, 5, 10, 15 min), blood was drawn from the orbital sinus, mice were sacrificed by cervical dislocation and selected organs (heart, lungs, liver and kidney) were excised, weighed and measured for their radioactive content using a γ-counter (1480 Wizard 3″). Distribution of activity was calculated as the percentage of injected dose per gram of organ (% ID/g). Activity uptake ratios of various organs were calculated by dividing the corresponding calculated % ID/gs.
# Distribution of activity was calculated as the percentage of injected dose per gram of wet tissue (% ID/g). Activity uptake ratios of various organs were calculated by dividing the corresponding calculated % ID/g. Heart standardized uptake values (SUVs) were calculated by dividing the % ID in the heart of each rat by the percentage of heart weight of the total body weight of the animal.
# [4] = PET/CT studies in a porcine model of LCx coronary artery occlusion (rest and adenosine stress); format: in vivo, pigs
# Description: Following a constriction of the left circumflex coronary artery (LCxA) via insertion and manipulation of a stent, stress and rest dynamic-PET studies were performed in three pigs. Pigs underwent dynamic PET acquisition following injections of [^11C]-4 both at rest and under pharmacological stress [(207±30 MBq in 10±4 mL) and (203±11 MBq in 16±1 mL), respectively]. Images were acquired for each animal at rest and stress on the same day, allowing a minimum of 5 half-lives (approximately 2 h for carbon-11 and 1 h for nitrogen-13) in between injections to minimize crosstalk. Pharmacological stress was induced by an IV infusion of adenosine (500 μg×min^−1×kg^−1 body weight), beginning 3 min prior to injection of the tracers, and maintained for an additional 3 min. When necessary, hypotension was prevented by concomitant IV administration of dobutamine (2 μg×min^−1×kg^−1 body weight).
# In order to prevent complete occlusion in the third pig, the angiography and stent insertion were carried out in the PET/CT room, thus minimizing the animal's movement, and the animal was given higher doses of heparin (a sum of 30,000 units throughout the experiment) based on Activated Clotting Time (ACT) test. In the third pig, the adenosine stress protocol was performed twice: once with [^13N]NH3 (700 MBq in 1 mL) injection, and 2.5 h later, the adenosine stress protocol was repeated with [^11C]-4 injection.
# To prevent blood clotting, pigs were treated with aspirin (250-300 mg) and plavix (150-300 mg) on the day before the procedure. On the day of the study, the animals were anesthetized using ketamine/xylazine (15 mg/kg/2 mg/kg) and Butorphanol 0.2 mg/kg IM as premedication. For induction, ketamin/diazepam (4 mg/kg/0.02 mg/kg) was administered intravenously. Animals were ventilated and anesthesia, maintained using isoflorane 2% inhalation (via tracheal tube). Animals were monitored continuously for ECG, body temperature, O2 saturation, blood pressure, pulse and breathing. Vascular access was prepared in the left and right ear veins for drug and tracer administration, and a catheter was placed in the left femoral artery for stent insertion and arterial blood pressure measurements.
# Following anesthesia, the pigs underwent cannulation of the left femoral artery with a 7 Fr introducer sheath and a 7 Fr hockeystick catheter (Cordis) was positioned in the left main coronary artery. Partial LCx coronary artery occlusion was induced via partial inflation of the proximal component of a JOSTENT Graftmaster (Abbott Vascular, USA) inside the LCx coronary artery, creating a funnel-shaped structure. Before insertion of the stent, the 3.5×16 mm JOSTENT was partially crimped over a 3.5 mm balloon with its distal third beyond the inflating balloon. Inflation of the balloon dilates the crimped part leaving a distal cone that is not dilated with an orifice approximately 1 mm in diameter. Thus, when deployed in an artery that is 3.5 mm in diameter, a partial, yet significant stenosis was established.
# Coronary angiography was performed with 20-30 mL of contrast media and 3.5 mm wide and >20 mm long segment of the LCx artery that was free of major branches. The stent system was brought to the assigned segment over a floppy 0.014 coronary wire (ASAHI). The balloon was inflated with a pressure of 14-16 atmospheres (10-15 seconds) and the balloon was then deflated and withdrawn. Angiography was then performed in two different projections to ascertain that the cone-shaped stent enabled preserved continuous flow through its patent distal orifice. To ensure partial stenosis rather than complete occlusion of the artery during the PET imaging, a repeated angiography was taken at the end of imaging.
# Animals were placed in a supine position with the heart in the center of the field of view of the PET/CT scanner. Imaging was performed on a Discovery ST PET/CT tomograph (GE Healthcare, Milwaukee, Wis.), with intrinsic spatial resolution: in-plane 6.2 mm, axial 5.0 mm. […]
# [5] = literature reference value; cited from earlier work
# [6] = log P (lipophilicity); format: physicochemical; details: n=3, data not shown
# [7] = BALB/c Ola/Hsd, mouse, in vivo, 1 min
# [8] = BALB/c Ola/Hsd, mouse, in vivo, 5 min
# [9] = BALB/c Ola/Hsd, mouse, in vivo, 10 min
# [10] = BALB/c Ola/Hsd, mouse, in vivo, 15 min
# [11] = mice, time point not stated (within 15 min period)
molecule,measurement,setting,value
"C[N+]([11CH3])(c1ccccc1)c1ccccc1 [[^11C]-4, [^11C]dimethyl-diphenyl-ammonium iodide]",stable heart SUVs,[1],about 15
same,heart/blood activity ratios,[1]; 5-15 min after injection,67.5-88.5
same,heart/kidneys uptake ratio,[1]; 10 min after injection,3.5
same,heart/liver uptake ratio,[1]; 10 min after injection,3.2
same,heart/lungs uptake ratio,[1]; 10 min after injection,2.4
same,Heart SUV,[1]; 15 min post injection,15.6±0.4
same,heart/blood activity ratio,[1]; 15 min post injection,about 90
same,"radioactivity in the heart compared to the lungs, kidneys and the liver",[1]; 15 min post injection,approximately 5 fold
same,radioactivity uptake in the heart,[1]; throughout the first 15 min,approximately 5 % ID/g
same,"kidney radioactivity uptake, initial peak value",[2],6 % ID/mL
same,kidney radioactivity uptake,[2]; 20 min after injection,~1 % ID/mL
same,myocardial radioactivity uptake,[2],~3 % ID/mL
same,radioactivity uptake in the heart,[3]; [7],46.6 % ID/g
same,heart/blood activity uptake ratio,[3]; [8],44 fold
same,radioactivity uptake in the heart,[3]; [8],50.4 % ID/g
same,heart/blood activity uptake ratio,[3]; [9],61 fold
same,radioactivity uptake in the heart,[3]; [9],62.5 % ID/g
same,Heart SUV,[3]; [10],9.7±0.5
same,radioactivity uptake in the heart,[3]; [10],44.5 % ID/g
same,heart uptake compared to [99mTc]-MIBI,"[3]; mouse, in vivo",twice as high
same,"myocardial perfusion image finding, rest and stress","[4]; pig 1, complete stent occlusion","very severe, non-filling defect"
same,"myocardial perfusion image finding, rest and stress","[4]; pig 2, acute myocardial infarction","severe, fixed, inferior wall defect, with partial inferolateral wall reversibility"
same,myocardial perfusion image finding at adenosine stress,"[4]; pig 3, partial LCx stenosis",severe inferolateral defect
same,myocardial perfusion image finding at rest,"[4]; pig 3, partial LCx stenosis",filling in of that defect
same,time to minimum of blood pool activity,"[4]; pig 3, time-activity curves",5 min
same,time to plateau of cardiac accumulation,"[4]; pig 3, time-activity curves",approximately 10 min
"Cc1cccc([N+](C)(C)[11CH3])c1 [[^11C]-6, [^11C]Methyl-dimethyl-m-tolyl-ammonium iodide]",heart/blood activity uptake ratio,"[3]; mice, 10 min post injection",~13 fold
same,radioactivity uptake in the heart,"[3]; mice, 10 min post injection",~20 % ID/g
"C[N+](C)([11CH3])c1ccccc1 [[^11C]-2, [^11C]trimethyl-phenyl-ammonium iodide]",log P,[5],−2.74
same,radioactivity uptake in the heart,"[3]; mice, 1 min post injection",29.5 % ID/g
same,heart/blood activity uptake ratio,"[3]; mice, 5 min post injection",15.5 fold
same,heart/liver activity uptake ratio,"[3]; mice, 5 min post injection",1.9
same,heart/lungs activity uptake ratio,"[3]; mice, 5 min post injection",2.6
same,radioactivity uptake in the heart,"[3]; mice, 5 min post injection",26.8 % ID/g
same,heart/blood activity uptake ratio,"[3]; mice, 10 min post injection",13.3 fold and ~13 fold
same,radioactivity uptake in the heart,"[3]; mice, 10 min post injection",18.5 % ID/g and ~20 % ID/g
same,radioactivity uptake in the heart,"[3]; mice, 15 min post injection",13.9 % ID/g
same,heart/blood activity uptake ratio,[3]; [11],16 fold
"[13NH3] [[^13N]NH3, [^13N]ammonia, reference compound]","kidney radioactivity uptake, initial peak value",[2],3 % ID/mL
same,myocardial radioactivity uptake,[2],≤ 1.7 % ID/mL
same,myocardial perfusion image finding at adenosine stress,"[4]; pig 3, partial LCx stenosis",severe inferolateral defect
[^11C]tetramethyl-ammonium iodide [[^11C]-1],log P,[5],−3.92
same,"cardiac uptake, folds lower than in the kidneys",[3]; mice,9 folds
same,"cardiac uptake, folds lower than in the liver",[3]; mice,3 folds
same,activity accumulation in the heart over all observed time points,"[3]; mice, 1-15 min post injection",0.7-1.1 % ID/g
same,heart/blood activity uptake ratio,[3]; [11],less than 6 fold
"CN(C)c1ccc([N+](C)(C)[11CH3])cc1 [[^11C]-3, [^11C](4-dimethylamino-phenyl)-trimethyl-ammonium iodide]",logP,[6],-0.93 ± 0.1
same,radioactivity uptake in the heart,[3]; [7],48.7 % ID/g
same,radioactivity uptake in the heart,[3]; [8],47.7 % ID/g
same,radioactivity uptake in the heart,[3]; [9],40.15 % ID/g
same,radioactivity uptake in the heart,[3]; [10],28.5 % ID/g
"C[N+](C)([11CH3])c1cccc2ccccc12.O=S(=O)([O-])C(F)(F)F [[^11C]-7, [^11C]Methyl-dimethyl-1-naphtylammonium trifluoro-methane-sulfonate]",radioactivity uptake in the heart,"[3]; mice, 10 min post injection",~33 % ID/g
same,heart/blood activity uptake ratio,[3]; [11],≤ 20 fold
"[99Tc].[C-]#[N+]CC(C)(C)OC.[C-]#[N+]CC(C)(C)OC.[C-]#[N+]CC(C)(C)OC.[C-]#[N+]CC(C)(C)OC.[C-]#[N+]CC(C)(C)OC.[C-]#[N+]CC(C)(C)OC [[^99mTc]MIBI, Technetium-99 m methoxy isobutyl isonitrile, reference compound]",radioactivity uptake in the heart,"[3]; mice, 1 min post injection",24 % ID/g
same,radioactivity uptake in the heart,"[3]; mice, 5 min post injection",20.5 % ID/g
same,radioactivity uptake in the heart,"[3]; mice, 10 min post injection",21.4 % ID/g
same,heart/blood activity uptake ratio,"[3]; mice, 15 min post injection",45.1 fold
same,radioactivity uptake in the heart,"[3]; mice, 15 min post injection",13.8 % ID/g
